Test results reported in US6323203A, “Composition and method for treating diabetes” (Beyer; Camille F., priority 2000, dated 2001).

Legend:
[1] = tested on: cutaneous vasomotor reaction of blush area; test: Cutaneous vasomotor response (and tolerability) after a single oral dose in 8 male volunteers; assay type: in vivo, human; conditions: single oral dose, 900 mg PZG
Method: (§1) Eight male nonsmoking subjects aged 24-32 participated. They were normal by history, physical exam and routine laboratory analysis of blood and urine.
(§2) This was a single-blind, three-phase crossover study beginning after a 10-hour fast at 8 a.m., designated time 0 (control), when the first venipuncture occurred. In phase I, three capsules of lactose were given orally, followed by venipunctures 2 and 4 h later. In phase II, 1 week later, after a control blood specimen drawn at 8 a.m., PZG (900 mg) was given orally and blood specimens taken 2 and 4 h thereafter. In phase III, 3 weeks later, after a control blood specimen drawn at 8 a.m., PZA (300 mg) was given orally and blood specimens taken 2 and 4 h later.
Comparisons of mean serum or plasma concentrations ±SD during placebo, PZG and PZA phases are presented in Table 1 for glucose, insulin, C-peptide, free fatty acids and norepinephrine. Comparisons of mean serum or plasma concentrations ±SD during these three phases are presented in Table 2 for triglycerides, VLDL, LDL, HDL, total cholesterol, fibrinogen and serum PZG and PZA concentrations. Note the close agreement of serum PZG and PZA concentrations at 2 h and also at 4 h after their administration. Table 3 compares mean serum or plasma concentrations ±SD of renin, angiotensin I, adlosterone, potassium, urea and uric acid during the three phases of the study. […] In an earlier pilot experiment to determine serum PZA concentrations following different PZA doses, a first subject ([…]) after a single oral dose of 300 mg PZA developed unexpectedly a typical cutaneous vasomotor reaction of their blush area which included flushed, warm skin of face, neck and shoulders with a mild rash for about 90 min. […] They described the reaction variously as warm redness or flushed head and neck, rash and itching (Table 4). These reactions, which were graded from 6 (most severe) to 0 (not observed), lasted from 30 min in 3 subjects to 4 h in 1 subject. […] No significant correlation occurred between score of reaction (effect+duration) and PZA peak blood concentration among the subjects (r=0.281) (Table 4).
^1 Score = warm + redness (flush) + rash + itching + duration. Duration
as 0.5 h, 1, 2, 4 h (reaction and duration as noted).

[2] = Serum concentration of PZG or PZA after single oral dose in the crossover study; assay type: in vivo; conditions: human, 900 mg, 8 normal subjects
Method: as §1, §2
(§3) Each phase consisted of taking three capsules, each containing 300 mg. In phase I, all three capsules were of lactose; in phase II, all three were PZG; and in phase III, two capsules were lactose and one PZA. All capsules appeared indistinguishable and were given to each subject who swallowed them with water in the presence of an investigator.
(§4) Once obtained, blood specimens were immediately spun. Refrigerated serum or plasma was analyzed within 24 h for glucose, insulin, electrolytes, blood urea nitrogen, creatinine, liver function tests, triglycerides, total cholesterol, high-density lipoprotein (HDL) cholesterol, low-density lipoprotein (LDL) cholesterol, very-low-density lipoprotein (VLDL) cholesterol, free fatty acids, and fibrinogen.

[3] = Single-blind, three-phase crossover study of single oral doses: blood analyses of metabolic, hormonal and electrolyte parameters in 8 normal male subjects; assay type: in vivo, human; conditions: for Free fatty acids, mean / Angiotensin I, mean / Renin, mean / C-peptide, mean / Potassium, mean / Uric acid, mean / Aldosterone, mean / Insulin, mean / Urea, mean / VLDL Cholesterol, mean / Norepinephrine, mean / HDL Cholesterol, mean / Glucose, mean / Triglycerides, mean / LDL Cholesterol, mean / Total cholesterol, mean / Fibrinogen, mean: 8 normal subjects; for Free fatty acids, mean: 0 h: PZG 0.47, PZA 0.51; for Angiotensin I, mean: 0 h: PZG 0.84, PZA 0.66; for Renin, mean: 0 h: PZG 1.0, PZA 1.5; for C-peptide, mean: 0 h: PZG 1.1, PZA 1.2; for Potassium, mean: 0 h: PZG 4.2, PZA 4.0; for Uric acid, mean: 0 h: PZG 6.0, PZA 5.6; for Aldosterone, mean: 0 h: PZG 8.6, PZA 13.6; for Insulin, mean: 0 h: PZG 8.8, PZA 5.4; for Urea, mean: 0 h: PZG 17, PZA 17; for VLDL Cholesterol, mean: 0 h: PZG 20, PZA 17; for Norepinephrine, mean: 0 h: PZG 37, PZA 75; for HDL Cholesterol, mean: 0 h: PZG 41, PZA 46; for Glucose, mean: 0 h: PZG 87, PZA 84; for Triglycerides, mean: 0 h: PZG 101, PZA 86; for LDL Cholesterol, mean: 0 h: PZG 107, PZA 104; for Total cholesterol, mean: 0 h: PZG 168, PZA 167; for Fibrinogen, mean: 0 h: PZG 266, PZA 293
Method: A three-phase study, where single oral doses of placebo, followed in one week by 900 mg of pyrazinoylguanidine (PZG), followed in three weeks by 300 mg of pyrazinoic acid (PZA), involving normal male subjects, was carried out to compare and contrast metabolic effects of single doses of PZG and PZA. A purpose of the study was to determine whether the metalbolic effects observed after 3 and also 21 days of PZG administration in patients with renal disease or with diabetes also occurred after a single oral dose. […]
as §1, §2, §3, §4
Repeated measures of analysis of variance were used to compare each subject's placebo, PZG and PZA phase. Two-tailed Student t-tests were performed between groups. All results are reported as means ±SD. Statistical significance was considered when p<0.05. The results are illustrated in Tables 1-4.

[4] = 4 h after single oral dose (PZG 900 mg, PZA 300 mg)
[5] = 2 h after single oral dose (PZG 900 mg, PZA 300 mg)

In the case of `NC(N)=NC(=O)c1cnccn1` [PZG, pyrazinoylguanidine], the adverse reactions [1] is reported as “no adverse reaction”, the tolerability [1] is reported as “well tolerated” and the concentration at 2 h ([2]; 2 h after single oral dose (PZG 900 mg, PZA 300 mg), read-out: Serum concentration of PZG or PZA, mean) is reported as 5100 ng/mL. The concentration at 4 h [2, 4] was 3000 ng/mL, the “Free fatty acids, mean” value [3, 5] was 0.20 meq/l and the “Angiotensin I, mean” value [3, 5] was 0.86 ng/ml per h. The “Renin, mean” value [3, 5] was 1.2 ng/ml per h, the “C-peptide, mean” value [3, 5] was 0.9 ng/mL and the “Potassium, mean” value [3, 5] was 4.5 meg/l. The “Uric acid, mean” value [3, 5] was 6.0 mg/dL, the “Aldosterone, mean” value [3, 5] was 10.0 ng/dL and the “Insulin, mean” value [3, 5] was 6.2 μlU/ml. For the same molecule, the “Urea, mean” value [3, 5] was 17 mg/dL, the “VLDL Cholesterol, mean” value [3, 5] was 18 mg/dL and the “Norepinephrine, mean” value [3, 5] was 53 pg/mL. The “HDL Cholesterol, mean” value [3, 5] was 42 mg/dL, the “Glucose, mean” value [3, 5] was 84 mg/dL and the “Triglycerides, mean” value [3, 5] was 91 mg/dL. For the same molecule, the “LDL Cholesterol, mean” value [3, 5] was 107 mg/dL, the “Total cholesterol, mean” value [3, 5] was 167 mg/dL and the “Fibrinogen, mean” value [3, 5] was 273 mg/dL. For the same molecule, the “Free fatty acids, mean” value [3, 4] was 0.19 meq/l, the “Angiotensin I, mean” value [3, 4] was 1.0 ng/ml per h and the “Renin, mean” value [3, 4] was 1.8 ng/ml per h. For the same molecule, the “C-peptide, mean” value [3, 4] was 0.6 ng/mL, the “Potassium, mean” value [3, 4] was 4.3 meg/l and the “Uric acid, mean” value [3, 4] was 6.2 mg/dL. For the same molecule, the “Aldosterone, mean” value [3, 4] was 9.5 ng/dL, the “Insulin, mean” value [3, 4] was 3.4 μlU/ml and the “Urea, mean” value [3, 4] was 16 mg/dL. For the same molecule, the “VLDL Cholesterol, mean” value [3, 4] was 16 mg/dL, the “Norepinephrine, mean” value [3, 4] was 113 pg/mL and the “HDL Cholesterol, mean” value [3, 4] was 42 mg/dL. For the same molecule, the “Glucose, mean” value [3, 4] was 80 mg/dL, the “Triglycerides, mean” value [3, 4] was 79 mg/dL and the “LDL Cholesterol, mean” value [3, 4] was 113 mg/dL. The “Total cholesterol, mean” value [3, 4] was 171 mg/dL, the “Fibrinogen, mean” value [3, 4] was 273 mg/dL and the “effect on potassium blood concentrations” value ([3]; single oral dose, within 4 h) was “not changed”.
